In ChEMBL document CHEMBL2074399, “Effects of steroids and verapamil on P-glycoprotein ATPase activity: progesterone, desoxycorticosterone, corticosterone and verapamil are mutually non-exclusive modulators” (Biochem J, 1996):

Target: ATP-dependent translocase ABCB1 (Homo sapiens, UniProt P08183)
Assay: TP_TRANSPORTER: inhibition of Verapamil stimulated ATP hydrolysis (Verapamil: 2 uM, Corticosterone: 800 uM) in membrane vesicles from DC-3F/ADX cells
Assay type: functional, cell membranes, Membrane vesicle
Details: hamster

Sequence of ATP-dependent translocase ABCB1 (P08183 whole entry): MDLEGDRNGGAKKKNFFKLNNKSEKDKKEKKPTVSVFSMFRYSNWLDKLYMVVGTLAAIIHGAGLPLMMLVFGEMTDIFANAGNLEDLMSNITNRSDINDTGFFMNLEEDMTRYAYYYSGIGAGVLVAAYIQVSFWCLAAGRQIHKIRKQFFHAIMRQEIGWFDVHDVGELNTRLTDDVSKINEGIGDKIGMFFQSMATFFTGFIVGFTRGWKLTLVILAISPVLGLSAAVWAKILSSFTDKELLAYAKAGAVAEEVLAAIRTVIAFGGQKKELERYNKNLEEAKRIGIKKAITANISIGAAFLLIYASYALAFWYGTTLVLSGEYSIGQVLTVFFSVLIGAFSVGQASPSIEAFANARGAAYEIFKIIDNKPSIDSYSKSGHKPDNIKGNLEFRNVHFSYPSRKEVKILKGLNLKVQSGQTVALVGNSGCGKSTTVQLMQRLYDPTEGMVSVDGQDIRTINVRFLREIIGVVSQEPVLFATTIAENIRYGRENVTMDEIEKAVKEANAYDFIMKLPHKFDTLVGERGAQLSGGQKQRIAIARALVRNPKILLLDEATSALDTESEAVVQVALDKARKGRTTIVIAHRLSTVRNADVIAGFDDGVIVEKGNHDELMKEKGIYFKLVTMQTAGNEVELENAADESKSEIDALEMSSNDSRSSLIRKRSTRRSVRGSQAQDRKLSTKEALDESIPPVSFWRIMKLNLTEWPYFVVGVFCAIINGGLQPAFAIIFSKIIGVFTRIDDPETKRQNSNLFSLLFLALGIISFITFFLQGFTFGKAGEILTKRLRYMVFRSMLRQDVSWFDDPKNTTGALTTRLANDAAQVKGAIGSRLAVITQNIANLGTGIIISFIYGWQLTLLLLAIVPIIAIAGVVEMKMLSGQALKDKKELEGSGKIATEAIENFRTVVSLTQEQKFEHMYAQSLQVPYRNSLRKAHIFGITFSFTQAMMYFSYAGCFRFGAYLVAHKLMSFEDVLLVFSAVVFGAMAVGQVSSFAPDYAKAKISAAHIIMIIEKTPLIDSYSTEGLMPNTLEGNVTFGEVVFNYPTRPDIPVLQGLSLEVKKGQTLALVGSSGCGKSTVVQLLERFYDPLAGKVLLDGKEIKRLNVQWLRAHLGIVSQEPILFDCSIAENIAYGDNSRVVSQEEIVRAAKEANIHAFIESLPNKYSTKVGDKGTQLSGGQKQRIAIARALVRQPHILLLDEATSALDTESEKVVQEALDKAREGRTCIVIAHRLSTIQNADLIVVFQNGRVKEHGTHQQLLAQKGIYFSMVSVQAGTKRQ

- Activity: inhibitor [+]
Structure (SMILES): C[C@]12C[C@H](O)[C@H]3[C@@H](CCC4=CC(=O)CC[C@@]43C)[C@@H]1CC[C@@H]2C(=O)CO [CORTICOSTERONE]
